Reference: ChEMBL document CHEMBL5344416, “Phenothiazines as anti-cancer agents: SAR overview and synthetic strategies” (Eur J Med Chem, 2023)

Legend:
TC-32 [1] = assay: Antiproliferative activity against human TC-32 cells assessed as reduction in cell proliferation incubated for 72 hrs by WST-1 assay; assay type: functional, cell-based; conditions: TC-32, 72 h
SNB-19 [2] = assay: Antiproliferative activity against human SNB-19 cells assessed as reduction in cell proliferation incubated for 72 hrs by WST-1 assay; assay type: functional, cell-based; conditions: SNB-19, 72 h
MDA-MB-231 [3] = assay: Antiproliferative activity against human MDA-MB-231 cells assessed as reduction in cell proliferation incubated for 72 hrs by WST-1 assay; assay type: functional, cell-based; conditions: MDA-MB-231, 72 h
LoVo [4] = assay: Antiproliferative activity against human LoVo cells assessed as reduction in cell viability incubated for 48 hrs by MTT assay; assay type: functional, cell-based
[5] = Cytotoxicity against human Lovo/DX cells assessed as reduction in cell viability incubated for 72 hrs by MTT assay; assay type: functional
[6] = Antiproliferative activity against human Lovo/DX cells assessed as reduction in cell viability; assay type: functional, cell-based
LoVo [7] = assay: Cytotoxicity against human LoVo cells assessed as reduction in cell viability incubated for 72 hrs by MTT assay; assay type: functional
ASPC1 [8] = assay: Cytotoxicity against human ASPC1 cells assessed as reduction in cell viability incubated for 24 hrs by MTT assay; assay type: functional, cell-based; conditions: ASPC1, 24 h
BXPC-3 = assay: Cytotoxicity against human BXPC-3 cells assessed as reduction in cell viability incubated for 72 hrs by MTT assay; assay type: functional, cell-based; conditions: BXPC-3, 72 h
SW1990 [9] = assay: Cytotoxicity against human SW1990 cells measured after 8 days; assay type: functional, cell-based; conditions: SW1990, 192 h
PANC-1 = assay: Cytotoxicity against human PANC-1 cells assessed as cell growth inhibition incubated for 48 hrs by WST-1 assay; assay type: functional, cell-based; conditions: PANC-1, 48 h
MRC5 = assay: Cytotoxicity against human MRC5 cells assessed as reduction in cell growth incubated for 48 hrs by CCK8 assay; assay type: functional, cell-based; conditions: MRC5, 48 h
TC-32 [10] = assay: Anticancer activity against human TC-32 cells assessed as reduction in cell growth incubated for 48 hrs by SRB assay; assay type: functional, cell-based; conditions: TC-32, 48 h
SNB-19 [11] = assay: Anticancer activity against human SNB-19 cells assessed as reduction in cell growth incubated for 48 hrs by SRB assay; assay type: functional, cell-based; conditions: SNB-19, 48 h
MDA-MB-231 [12] = assay: Anticancer activity against human MDA-MB-231 cells assessed as reduction in cell viability measured after 72 hrs by MTT assay; assay type: functional, cell-based; conditions: MDA-MB-231, 72 h
THP-1 = assay: Antiproliferative activity against human THP-1 cells assessed as cell growth inhibition measured after 24 hrs by MTT assay; assay type: functional, cell-based; conditions: THP-1, 24 h
[13] = Antiproliferative activity against human PBMC cells assessed as reduction in cell viability measured after 24 hrs by MTT assay; assay type: functional, cell-based
HL-60 = assay: Antiproliferative activity against human HL-60 cells assessed as cell growth inhibition measured after 24 hrs by MTT assay; assay type: functional, cell-based; conditions: HL-60, 24 h
MCF7 [14] = assay: Antitumor activity against human MCF7 cells assessed as increase in LDH level at 1000 ug relative to control; assay type: functional; conditions: dose 1000 µg
MCF7 [15] = assay: Antitumor activity against human MCF7 cells assessed as inhibition of cell growth at 1000 ug measured after 48 hrs by spectrophotometric analysis relative to control; assay type: functional; parameters: scale not given: the % may be the effect or the level left; conditions: dose 1000 µg
CT26 [16] = assay: Antitumor activity against mouse CT26 cells assessed as tumor growth inhibition incubated for 4 hrs by MTT assay relative to control; assay type: functional; parameters: scale not given: the % may be the effect or the level left
CT26 [17] = assay: Antitumor activity against mouse CT26 cells assessed as reduction in cell viability incubated for 4 hrs by MTT assay; assay type: functional, cell-based; conditions: CT26, 4 h
ASPC1 [18] = assay: Antiproliferative activity against human AsPC1 cells assessed as inhibition of cell proliferation incubated for 6 days by CCK8 assay; assay type: functional, cell-based; conditions: ASPC1, 144 h
SW1990 [19] = assay: Antiproliferative activity against human SW1990 cells assessed as reduction in cell viability; assay type: functional, cell-based
RAW264.7 = assay: Cytotoxicity against mouse RAW264.7 cells assessed as reduction in cell viability incubated for 72 hrs; assay type: functional, cell-based; conditions: RAW264.7, 72 h
CWR22R = assay: Antiproliferative activity against human 22Rv1 cells assessed as cell viability incubated for 96 hrs by Cell-Titer Glo assay; assay type: functional, cell-based; conditions: 22Rv1, 96 h
HepG2 = assay: Cytotoxicity against human HepG2 cells assessed as reduction in cell viability incubated for 48 hrs by MTT assay; assay type: functional, cell-based; conditions: HepG2, 48 h
MCF7 [20] = assay: Cytotoxicity against human MCF7 cells assessed as cell growth inhibition measured after 48 hrs by MTT assay; assay type: functional, cell-based; conditions: MCF7, 48 h
HSC-2 = assay: Cytotoxicity against human HSC-2 cells assessed as reduction in cell viability measured after 48 hrs by MTT assay; assay type: functional
HSC-4 = assay: Cytotoxicity against human HSC-4 cells assessed as reduction in cell viability incubated for 48 hrs by MTT assay; assay type: functional
HSC-3 = assay: Cytotoxicity against human HSC-3 cells assessed as reduction in cell viability incubated for 48 hrs by MTT assay; assay type: functional
A549 = assay: Antiproliferative activity against human A549 cells assessed as reduction in cell viability incubated for 72 hrs by WST-1 assay; assay type: functional, cell-based; conditions: A549, 72 h
SNB-19 [21] = assay: Anticancer activity against human SNB-19 cells assessed as reduction in cell proliferation incubated for 72 hrs by WST-1 assay; assay type: functional, cell-based; conditions: SNB-19, 72 h
MDA-MB-231 [22] = assay: Antiproliferative activity against human MDA-MB-231 cells assessed as reduction in cell viability incubated for 72 hrs by WST-1 assay; assay type: functional, cell-based; conditions: MDA-MB-231, 72 h
NHDF = assay: Cytotoxicity against human NHDF cells assessed as reduction in cell viability incubated for 72 hrs by WST-1 assay; assay type: functional, cell-based
Caco-2 = assay: Cytotoxicity against human Caco-2 cells assessed as reduction in cell proliferation incubated for 72 hrs by WST-1 assay; assay type: functional, cell-based; conditions: Caco-2, 72 h

For `CCN(CC)CCN1c2ncccc2Sc2cccnc21`, the IC50 (TC-32 [1]) was 14.4 µM, the IC50 (SNB-19 [2]) was 0.33 µM and the IC50 (MDA-MB-231 [3]) was 2.13 µM.

`OCCOCCN1CCN(CC(O)CN2c3ccccc3Sc3ccc(C(F)(F)F)cc32)CC1` (stereo unspecified) showed an IC50 (LoVo [4]) of 50 µM, an IC20 [5] of 4 µM and an IC50 [6] of 20 µM. It also gave an IC20 (LoVo [7]) of 6 µM.

In the case of `CN(CCO)CC(O)CN1c2ccccc2Sc2ccc(C(F)(F)F)cc21` (stereo unspecified), the IC50 (LoVo [4]) is reported as 50 µM, the IC20 [5] is reported as 8 µM and the IC50 [6] is reported as 42 µM. It also gave an IC20 (LoVo [7]) of 12 µM.

With `CC1=C(C(=O)Nc2ccc(Cl)c(Cl)c2)C(c2ccc3c(c2)Sc2ccccc2N3)C(C(=O)Nc2ccc(Cl)c(Cl)c2)=C(C)N1` the IC50 (ASPC1 [8]) was 6.31 µM, the IC50 (BXPC-3) was 6.31 µM and the IC50 (SW1990 [9]) was 6.31 µM. The IC50 (PANC-1) was 6.31 µM and the IC50 (MRC5) was 70.5 µM.

In the case of `C(#CCN1c2ccncc2Sc2ncccc21)CN1CCN(c2ccccc2)CC1`, the IC50 (TC-32 [10]) is reported as 4.57 µM, the IC50 (SNB-19 [11]) is reported as 0.45 µM and the IC50 (MDA-MB-231 [12]) is reported as 0.74 µM.

For `CCCCCCCCCCc1nc2cc3c(cc2s1)N(C)c1ccccc1S3`, the IC50 (THP-1) was 21.6 µM, the IC50 [13] was greater than 2000 µM and the IC50 (HL-60) was 67.3 µM.

Work on `CN1c2ccccc2Sc2cc(/C=C/C(=O)c3ccccc3)ccc21` yielded an Activity (MCF7 [14]) of 64% and an Activity (MCF7 [15]) of 21%.

`CC(=O)c1ccc(N2CCN(CC(O)CN3c4ccccc4Sc4ccc(C(F)(F)F)cc43)CC2)cc1` (stereo unspecified) gave an IC50 (LoVo [4]) of 100 µM, an IC20 [5] of 4 µM and an IC50 [6] of 100 µM. The IC20 (LoVo [7]) was 3 µM.

`COCCOCCOCCOCCOCCOCCOCCOCCOCCOCCOCCOCCN1c2ccccc2Sc2ccccc21` gave an Activity (CT26 [16]) of 92% and an IC50 (CT26 [17]) of 344 µM.

In the case of `CCN1c2ccccc2Sc2cc(C3NC(=O)NC(C)=C3C(=O)Nc3ccccc3)ccc21` (stereo unspecified), the IC50 (ASPC1 [18]) is reported as 15.7 µM, the IC50 (SW1990 [19]) is reported as 22.8 µM and the IC50 (MRC5) is reported as 83.7 µM.

Work on `O=C(Nc1ccc(OCCCN2CCNCC2)cc1)N1c2ccccc2Sc2ccccc21` yielded an IC50 (RAW264.7) of 60.1 µM and an IC50 (CWR22R) of 13.5 µM.

`CCCCCCCCCCCCN1c2ccccc2Sc2ccc(C(=O)/C=C/c3ccc(Cl)cc3)cc21` showed an IC50 (HepG2) of 7.14 µM and an IC50 (MCF7 [20]) of 13.8 µM.

`COc1cc(OC)c(OC)cc1/C=C/C(=O)c1ccc2c(c1)Nc1ccccc1S2` gave a CC50 (HSC-2) of 4.9 µM, a CC50 (HSC-4) of 8 µM and a CC50 (HSC-3) of 311 µM.

In the case of `Clc1ccc(Cn2cc(CN3c4cccnc4Sc4cccnc43)nn2)cc1`, the IC50 (A549) is reported as 0.25 µM, the IC50 (SNB-19 [21]) is reported as 4.66 µM and the IC50 (MDA-MB-231 [22]) is reported as 0.51 µM. The IC50 (NHDF) was greater than 100 µM and the IC50 (Caco-2) was 0.25 µM.

For `CCCCCCCCCCCCN1c2ccccc2Sc2ccc(C(=O)/C=C/c3cc(OC)c(OC)c(OC)c3)cc21`, the IC50 (HepG2) was 7.6 µM and the IC50 (MCF7 [20]) was 12 µM.

Work on `OCCN1CCN(CCCN2c3ccccc3Sc3ccc(C(F)(F)F)cc32)CC1` [FLUPHENAZINE] yielded an IC50 (LoVo [4]) of 80 µM, an IC20 [5] of 22 µM and an IC50 [6] of 80 µM. For the same compound, the IC20 (LoVo [7]) was 22 µM.
